Reference: patent US20240415845A1, “Compositions of Iboga Alkaloids and Methods of Treatment” (priority 2022, published 2024)
Where “and” joins values, the source holds several entries; their conditions need not be identical. Equal entries are not always repeated.

System: special operations veterans with combat and/or blast exposure
Assay: Clinician-Administered PTSD Scale for DSM-5 (CAPS-5)
Assay type: in vivo, human
Excerpt: The pre-specified primary outcome was change in the World Health Organization Disability Assessment Schedule 2.0 (WHODAS) (Gold L. H. et al., J. Am. Acad. Psychiatry Law 42, 9 (2014)) from baseline to post-treatment, with change from baseline to the one-month follow-up a secondary outcome. Additional pre-specified secondary outcomes included post-treatment changes on the Clinician Administered PTSD Scale (CAPS-5; Weathers, F. W. et al., Psychol. Assess., 30, 383-395 (2018)), Montgomery-Åsberg Depression Rating Scale (MADRS; Montgomery, S. A., Br. J. Psychiatry J. Ment. Sci., 134, 382-389 (1979)) and the Hamilton-Anxiety Rating Scale (HAM-A; Bruss, G. S., et al., Psychiatry Res., 53, 191-202 (1994)). […] An additional dose of magnesium was administered approximately 12 hours later. To assess the significance of post-treatment changes, linear mixed effects (LME) models were used for each outcome measure. False Discovery Rate (FDR; Benjamini, Y. et al., J. R. Stat. Soc. Ser. B Methodol., 57, 289-300 (1995)) was applied to correct for multiple comparisons.
To further assess changes in comorbid psychiatric symptoms identified by the models, mean percent reduction, response rate, and remission rate according to the CAPS-5, MADRS and HAM-A (Table 1) were calculated. Response on the CAPS-5, MADRS, and HAM-A was defined as a reduction of at least 10 points (Mitchell, J. M. et al., Nat. Med. 27, 1025-1033(2021)), 50% (Leucht, S. et al., J. Affect. Disord. 210, 287-293 (2017)), and 50% (McIntyre, A. et al., Depress. Anxiety 24, 487-494 (2007)), respectively; remission as loss of diagnosis and a total score below 12 (Mitchell, J. M. et al. supra), <8 (Leucht, S. et al. supra), and <8(McIntyre, A. et al., supra), respectively. One participant's baseline scores met criteria for remission in all three scales and so were excluded from the calculation of response and remission rates, leaving 29 participants in these specific analyses.
With subjects in the fasting state, an intravenous infusion of 1 gram of magnesium sulfate was administered 1-2 hours prior to treatment. […] Medical staff (MD, RN, or EMT) were onsite at a ratio of at least 1 staff per 2 patients throughout treatment for monitoring and management, but no specific coaching or psychological support was provided during treatment.
Clinician administered scales included CAPS-5 (Clinician-administered PTSD Scale for DSM-5), which is a gold standard assessment of PTSD symptom severity; MADRS (Montgomery-Asberg Depression Rating Scale), a measure for depressive symptom severity: and Hamilton-Anxiety Rating Scale (HAM-A) (Shear, M. K. et al., Depress. Anxiety 13, 166-178 (2001)) a measure for anxiety symptom severity: SCID-5 (Structured Clinical Interview for DSM-5) Overview for a historical and environmental context of symptom presentation: MINI DSM-5 (Mini International Neuropsychiatric Interview from DSM-5) for a structured psychodiagnostics assessment: BAT-L (Boston Assessment of TBI-Lifetime) for a lifetime history of TBI and blast exposure: and Ohio State University TBI Identification Method (Short Form) for a lifetime history of TBI. MADRS testing provides an indication of depressive symptoms, CAPS-5 provides an indication of PTSD and SIGH-A provides an indication of anxiety. Collectively these overlap to provide indication of mood, concentration, sleep and tension.
For the CAPS-5, the test version with a […] structured interview of PTSD symptoms over the past week was used, using a 0 (“Absent”) to 4 (“Extreme/Incapacitating”) scale, with possible total scores ranging from 0) to 80. The score range 23 to 34 is considered moderate PTSD while a higher score represents severe PTSD (Weathers, F. W. et al., Psychol. Assess. 30, 383-395 (2018)).

[1] = 1-mo. post, only participants meeting relevant MINI diagnostic criteria
[2] = 1-mo. post, only participants with mild TBI
[3] = 1-wk. post, only participants meeting relevant MINI diagnostic criteria
[4] = 1-wk. post, only participants with mild TBI

CCC1CC2CC3c4[nH]c5ccc(OC)cc5c4CCN(C2)C13 (stereo not shown) [ibogaine, Ibogaine]
CAPS-5 % Reduction vs Baseline [1]: 86% ± 19% | CAPS-5 Remission Rate [1]: 83% | CAPS-5 Response Rate [1]: 100% | CAPS-5 score (1-mo. post, only participants meeting relevant MINI diagnostic criteria at baseline (N 23), baseline 35.7 ± 11.0): 6.0 | CAPS-5 % Reduction vs Baseline [2]: 88% ± 17% | CAPS-5 Remission Rate [2]: 85% | CAPS-5 Response Rate [2]: 100% | CAPS-5 score (1-mo. post, only participants with mild TBI (N 28), baseline 31.7 ± 13.0): 4.8 | CAPS-5 score (1-wk post, only participants meeting relevant MINI diagnostic criteria at baseline (N 23), baseline 35.7 ± 11.0): 4.4 | CAPS-5 % Reduction vs Baseline [3]: 87% ± 17% | CAPS-5 Remission Rate [3]: 83% | CAPS-5 Response Rate [3]: 96% | CAPS-5 % Reduction vs Baseline [4]: 89% ± 14% | CAPS-5 Remission Rate [4]: 89% | CAPS-5 Response Rate [4]: 96% | CAPS-5 score (1-wk. post, only participants with mild TBI (N 28), baseline 31.7 ± 13.0): 3.6 | CAPS-5, effect size D (baseline vs 1-mo. post, only participants meeting relevant MINI diagnostic criteria (N 23)): 2.98 | CAPS-5, effect size D (baseline vs 1-mo. post, only participants with mild TBI (N 28)): 2.49 | CAPS-5, effect size D (baseline vs 1-wk post, only participants with mild TBI (N 28)): 2.28 | CAPS-5, effect size D (baseline vs 1-wk. post, only participants meeting relevant MINI diagnostic criteria (N 23)): 2.75 | CAPS-5, effect size D (baseline vs one-month post, all participants): 2.54 | CAPS-5, effect size D (baseline vs one-week post, all participants): 2.30 | subjects lower than mild PTSD symptom severity (CAPS-5) (one month following treatment (FIG. 3B), mild = 12-22): 80% | CAPS-5 Remission Rate (one-month post, 29 participants, remission = loss of diagnosis and total score below 12): 86% | CAPS-5 Response Rate (one-month post, 29 participants, response = reduction of at least 10 points): 100% | CAPS-5 score (one-month post, all participants, baseline 31.7 ± 12.5, mean ± SD): 4.8 | CAPS-5 % Reduction vs Baseline (one-month post, all participants, mean ± SD): 88% and 88% ± 17% | CAPS-5 Remission Rate (one-week post, 29 participants, remission = loss of diagnosis and total score below 12): 86% | CAPS-5 Response Rate (one-week post, 29 participants, response = reduction of at least 10 points): 97% | CAPS-5 score (one-week post, all participants, baseline 31.7 ± 12.5, mean ± SD): 3.9 | CAPS-5 % Reduction vs Baseline (one-week post, all participants, mean ± SD): 88% ± 15%
